Results published in US8796267B2, “Oxazolidinone derivatives and methods of use” (Concert Pharmaceuticals, Inc., priority 2006, dated 2014).
Converted amounts (≈) assume the structure as drawn. Where two headings read alike, the source gives them in different places.

Experiments:
[1] = system: H. influenzae; test: MIC assay (broth microdilution); assay type: cell-based, Haemophilus influenzae; settings: in words
Protocol: (§1) The three test compounds were stored at 4° C. until tested.
(§2) All test articles and drugs were dissolved in 50% dimethyl sulfoxide (DMSO) at one-half the volume needed to prepare the stock solution. Once the compound was in solution, the rest of the volume was added as sterile deionized water. The drug solutions were allowed to stand at room temperature for 1 hr to allow for auto-sterilization. Stock solutions were prepared at 40-fold the highest final test concentration in the test plate. The final concentration of DMSO in the assay was 2.5%.
(§3) The test organisms were obtained from clinical laboratories; quality control cultures were from the American Type Culture Collection. The test groups included Staphylococcus aureus, Staphylococcus epidermidis, Enterococcus faecalis, Enterococcus faecium, Streptococcus pneumoniae, Streptococcus pyogenes, Streptococcus agalactiae, Haemophilus influenzae, and Moraxella catarrhalis. Various phenotypic susceptibility/resistance groups were represented. Organisms received were streaked for isolation on agar medium appropriate to each organism. Colonies were picked by swab from the isolation plates and put into suspension in the appropriate media containing a cryoprotectant. The suspensions were aliquoted into cryogenic vials and maintained at −80° C. The isolates were thawed and passaged on the appropriate agar medium: Trypticase Soy agar (TSA) for most organisms, TSA plus 5% sheep blood for streptococci, and chocolate agar for Haemophilus. The plates were incubated overnight at 35° C. Haemophilus plates were incubated in the presence of CO2.
The medium employed for the MIC assay was Mueller Hinton II Broth (MHB II-Becton Dickinson, Sparks, Md. #212322, Lot #7143673) for most of the organisms. MHB II was supplemented with 2% lysed horse blood (Cleveland Scientific Lot #H93152) to accommodate the growth of Streptococcus pneumoniae. Haemophilus influenzae was tested in Haemophilus Test Medium. […]

[2] = system: antibiotic resistant Grampositive pathogens including MRSA, VRE, and PRSP; test: In vitro antibacterial activity, overall conclusion; assay type: cell-based; settings: in words
Protocol: as §1, §2
as §3, with “The isolates were thawed and passaged on the appropriate agar medium: Trypticase Soy agar (TSA) for most organisms, TSA plus 5% sheep blood for streptococci, and chocolate agar for Haemophilus. The plates were incubated overnight at 35° C. Haemophilus plates were incubated in the presence of CO2.” left out

[3] = in vivo; settings: 150 mg; for AUC(0-t): both, chimpanzee, po; for half-life: iv
Protocol: The dosing solution is then filtered through a 0.22 μm filter prior to dosing.
(§8) Four chimpanzees (two male and two female) were used in the study. One male and one female were used for the intravenous study and one male and one female were used for the oral dosing study. All animals were fasted overnight prior to dosing. For all studies animals were sedated with ketamine (approx. 10 mg/ml) or telazol (approx. 5 mg/ml) prior to dosing. […] Intravenous doses were administered (150 ml at 2 mg/ml combined drugs) by infusion over a 30 minute period. Oral doses were administered in a volume of 150 ml at 2 mg/ml combined drugs.
(§9) For the intravenous study, a 4.5 ml aliquot of blood was taken from each animal prior to the start of infusion, 15 minutes after the start of infusion, and immediately before the end of infusion. Additional samples were taken at 6, 15, 30, and 60 minutes and 1.5, 2, 4, 6, 8 and 24 hours following infusion. For the oral study, 4.5 ml aliquots of blood were taken from each animal prior to doing and then at 15, 20 and 60 minutes and 1.5, 2, 4, 6, 8 and 24 hours post dosing. All blood samples were collected into vacutainer tubes containing sodium heparin as an anticoagulant, sufficiently mixed and stored on wet ice. The samples were centrifuged within 1 hour of collection and the plasma collected and frozen at −70° C. until analysis. Urine was also collected from each animal over a 24 hour period following dosing.
Chimp plasma sample (100 μL) was mixed with 300 μL internal standard solution prior to LC-MS/MS analysis. The internal standard was 250 ng/mL haloperidol in acetonitrile/water (90/10, v/v). After protein precipitation, 10 L supernatant was injected to a Zorbax SB-C8 (Rapid Resolution) column (2.1×30 mm, 3.5 μm). The initial mobile phase condition was 100% A (water with 0.1% formic acid) and 0% B (acetonitrile with 0.1% formic acid) with a flow rate at 0.5 mL/min. Mobile phase B was allowed to reach 90% within 2 minutes and held for 1 minute before ramping back 0% at 3.2 minutes. The overall run time was six minutes.

[4] = in words
Protocol: as §8, §9
Urine samples were similarly analyzed. […]

[5] = system: mtDNA-encoded protein synthesis in HepG2 cells; test: Mitochondria Toxicity Study (Complex IV/Frataxin ratio, dipstick); settings: for IC50: Homo sapiens, HepG2; for mitochondria toxicity: in words, versus linezolid
[6] = system: S. pyogenes; test: MIC assay (broth microdilution); assay type: cell-based; settings: Streptococcus pyogenes; read-out: potency (MIC90)
Protocol: as §1, §2, §3
(§4) The medium employed for the MIC assay was Mueller Hinton II Broth (MHB II-Becton Dickinson, Sparks, Md. #212322, Lot #7143673) for most of the organisms. MHB II was supplemented with 2% lysed horse blood (Cleveland Scientific Lot #H93152) to accommodate the growth of Streptococcus pneumoniae. Haemophilus influenzae was tested in Haemophilus Test Medium. On the day of the test, the medium to be used in the daptomycin row of the daughters was supplemented with calcium ions to the final concentration of 50 μg/mL, taking into account the calcium that was already present in the medium.
(§5) The MIC assay method followed the procedure described by the Clinical and Laboratory Standards Institute and employed automated liquid handlers to conduct serial dilutions and liquid transfers. Automated liquid handlers included the Multidrop 384, Labsystems, Helsinki, Finland; Biomek 2000 and Multimek 96, Beckman Coulter, Fullerton Calif. The wells of standard 96-well microdilution plates (Falcon 3918) were filled with 150 μL of DMSO:deionized H2O (1:1) on the Multidrop 384. The drugs were dispensed into Column 1 of a deep well plate. The Biomek 2000 transferred 150 μL of each drug into one well in Column 1 of a “mother plate” and completed serial transfers through Column 11 in the mother plates. The wells of Column 12 contained no drug and were the organism growth control wells.
(§6) The daughter plates were loaded with 85 μL of the appropriate test media described above using the Multidrop 384. The daughter plates were prepared on the Multimek 96 instrument which transferred 5 μL of drug solution from each well of a mother plate to each corresponding well of each daughter plate in a single step.
(§7) Standardized inoculum of each organism was prepared per CLSI methods (Clinical and Laboratory Standards Institute. Methods for Dilution Antimicrobial Susceptibility Tests for Bacteria That Grow Aerobically; Approved Standard—Seventh Edition. Clinical and Laboratory Standards Institute document M7-A7 [ISBN 1-56238-587-9]. Clinical and Laboratory Standards Institute, 940 West Valley Road, Suite 1400, Wayne, Pa. 19087-1898 USA, 2006). Suspensions were prepared in MHB to equal a 0.5 McFarland standard. The suspensions were diluted 1:19 in broth appropriate to the organism. […]

[7] = system: methicillinsensitive S. aureus (MSSA); test: MIC assay (broth microdilution); assay type: cell-based; settings: Staphylococcus aureus, clinical isolates
Protocol: as §1, §2, §3, §4, §5, §6, §7

[8] = system: community-acquired MRSA; test: MIC assay (broth microdilution); assay type: cell-based; settings: Staphylococcus aureus, clinical isolates
Protocol: as §1, §2, §3, §4, §5, §6, §7

[9] = system: vancomycin-sensitive E. faecium; test: MIC assay (broth microdilution); assay type: cell-based; settings: Enterococcus faecium; printed only as 'a value'
Protocol: as §1, §2, §3, §4, §5, §6, §7

[10] = system: vancomycin-sensitive E. faecalis; test: MIC assay (broth microdilution); assay type: cell-based; settings: Enterococcus faecalis; clinical isolates
Protocol: as §1, §2, §3, §4, §5, §6, §7

[11] = system: vancomycin-resistant E. faecium; test: MIC assay (broth microdilution); assay type: cell-based; settings: Enterococcus faecium; clinical isolates
Protocol: as §1, §2, §3, §4, §5, §6, §7

[12] = system: S. agalactiae; test: MIC assay (broth microdilution); assay type: cell-based; settings: Streptococcus agalactiae
Protocol: as §1, §2, §3, §4, §5, §6, §7

[13] = system: penicillin-intermediate S. pneumoniae; test: MIC assay (broth microdilution); assay type: cell-based; settings: Streptococcus pneumoniae; 27 isolates
Protocol: as §1, §2, §3, §4, §5, §6, §7

[14] = system: vancomycin-resistant E. faecalis; test: MIC assay (broth microdilution); assay type: cell-based; settings: Enterococcus faecalis; clinical isolates
Protocol: as §1, §2, §3, §4, §5, §6, §7

[15] = system: methicillin-sensitive S. epidermidis (MSSE); test: MIC assay (broth microdilution); assay type: cell-based; settings: Staphylococcus epidermidis; clinical isolates
Protocol: as §1, §2, §3, §4, §5, §6, §7

[16] = system: penicillin-sensitive S. pneumoniae; test: MIC assay (broth microdilution); assay type: cell-based; settings: Streptococcus pneumoniae; 27 isolates
Protocol: as §1, §2, §3, §4, §5, §6, §7

[17] = system: methicillin-resistant S. aureus (MRSA); test: MIC assay (broth microdilution); assay type: cell-based; settings: Staphylococcus aureus, clinical isolates
Protocol: as §1, §2, §3, §4, §5, §6, §7

[18] = system: M. catarrhalis; test: MIC assay (broth microdilution); assay type: cell-based; settings: Moraxella catarrhalis; 30 isolates
Protocol: as §1, §2, §3, §4, §5, §6, §7

[19] = system: penicillin-resistant S. pneumoniae; test: MIC assay (broth microdilution); assay type: cell-based; settings: Streptococcus pneumoniae; 28 isolates
Protocol: as §1, §2, §3, §4, §5, §6, §7

[20] = system: methicillin-resistant S. epidermidis (MRSE); test: MIC assay (broth microdilution); assay type: cell-based; settings: Staphylococcus epidermidis, clinical isolates
Protocol: as §1, §2, §3, §4, §5, §6, §7

[21] = in words; cited from earlier work
[22] = system: Vancomycin-Resistant Enterococcus faecium; Staphylococcus aureus; Streptococcus pneumoniae; Streptococcus pyogenes; Streptococcus agalactiae infections; settings: clinical trials, in words; cited from earlier work
[23] = in vivo; settings: male, Sprague Dawley, rat, po, 5 mg/kg
Protocol: The combo dose was prepared by mixing both by 1:1 to yield a concentration of 5 mg/mL for each compound (pH ˜6) for intravenous and oral administration. The obtained solution was clear and colourless.
Male Sprague Dawley rats (body weight: 170 g to 220 g) were used in this study. Before the pharmacokinetic studies, animals were randomly assigned to the treatment groups.
The plasma samples and the dose formulation were stored at −20° C. until bioanalysis. Sample Analysis
Plasma samples (0.1 mL) were transferred to Eppendorff tube, then 20 μL methanol, and 300 μL IS solution (50 ng/mL) were added to it. After Vortexing for 1 min and centrifuging for 5 min at 15,000 rpm, 5 μL of supernatant was injected into LC/MS/MS.
The concentrations in plasma below the limit of quantitation (LOQ=5 ng/mL) were designated as zero. The pharmacokinetic data analysis was performed using noncompartmental analysis modules in WinNonlin2.0.

[24] = system: Cyp isoforms (1A2; 2C9; 2C19; 2D6; 2E1; 3A4); settings: cited from earlier work
[25] = cited from earlier work
[26] = humans; cited from earlier work

| Compound | activity [1] | activity against antibiotic resistant Grampositive pathogens [2] | AUC(0-t) [3] | half-life ([3]; female) | half-life ([3]; male) | IC50 [5] | mitochondria toxicity [5] | MIC90 [6] | MIC90 [7] | MIC90 [8] | MIC90 [9] | MIC90 [10] | MIC90 [11] | MIC90 [12] | MIC90 [13] | MIC90 [14] | MIC90 [15] | MIC90 [16] | MIC90 [17] | MIC90 [18] | other results |
| --- | --- | --- | --- | --- | --- | --- | --- | --- | --- | --- | --- | --- | --- | --- | --- | --- | --- | --- | --- | --- | --- |
| [2H]C([2H])(NC(C)=O)[C@H]1CN(c2ccc(N3C([2H])([2H])C([2H])([2H])OC([2H])([2H])C3([2H])[2H])c(F)c2)C(=O)O1 [Compound 100] | poor activity | good activity | 16400 ng·h/mL | 6.4 h | 6.2 h | 9.3 µM | comparable to that of linezolid | 1 µg/mL (≈ 2.88 µM) | 4 µg/mL (≈ 11.5 µM) | 2 µg/mL (≈ 5.76 µM) | – | – | – | – | – | – | – | – | – | – | rate of metabolism versus linezolid (chimpanzee studies, in words): more slowly metabolized than linezolid; amount of deuterated M6 metabolite versus linezolid M6 metabolite ([4]; chimpanzee urine): essentially the same; amount excreted intact in the urine versus linezolid ([4]; chimpanzee, regardless of route or sex): approximately twice as much |
| [2H]C1([2H])OC([2H])([2H])C([2H])([2H])N(c2ccc(N3C[C@H](CNC(C)=O)OC3=O)cc2F)C1([2H])[2H] [Compound 101] | poor activity | good activity | – | – | – | 10.5 µM | comparable to that of linezolid | 1 µg/mL (≈ 2.9 µM) | 4 µg/mL (≈ 11.6 µM) | 2 µg/mL (≈ 5.79 µM) | 2 µg/mL (≈ 5.79 µM) | 2 µg/mL (≈ 5.79 µM) | 2 µg/mL (≈ 5.79 µM) | 2 µg/mL (≈ 5.79 µM) | 2 µg/mL (≈ 5.79 µM) | 2 µg/mL (≈ 5.79 µM) | 2 µg/mL (≈ 5.79 µM) | 2 µg/mL (≈ 5.79 µM) | 4 µg/mL (≈ 11.6 µM) | 4 µg/mL (≈ 11.6 µM) | % increase in AUC (both, chimpanzee, in vivo, iv): 31%; % increase in Half-life (both, chimpanzee, in vivo, iv): 30%; % increase in AUC (both, chimpanzee, in vivo, po): 41%; % increase in Cmax (both, chimpanzee, in vivo, po): 22%; MIC90 [19]: 2 µg/mL (≈ 5.79 µM); MIC90 [20]: 2 µg/mL (≈ 5.79 µM) |
| [2H]C1([2H])CN(c2ccc(N3C[C@H](CNC(C)=O)OC3=O)cc2F)CC([2H])([2H])O1 [Compound 103, (S)—N-((3-(3-fluoro-4-(4-morpholino-2,2,6,6-d4)-phenyl)-2-oxooxazolidin-5-yl)methyl)acetamide] | – | – | – | – | – | 9.7 µM | comparable to that of linezolid | – | – | – | – | – | – | – | – | – | – | – | – | – | – |
| CC(=O)NCC1CN(c2ccc(N(CCO)CC(=O)O)c(F)c2)C(=O)O1 (stereo not shown) [Compound M4] | – | – | – | – | – | – | – | – | – | – | – | – | – | – | – | – | – | – | – | – | activity of metabolite [21]: inactive |
| CC(=O)NCC1CN(c2ccc(NCCOCC(=O)O)c(F)c2)C(=O)O1 (stereo not shown) [Compound M6] | – | – | – | – | – | – | – | – | – | – | – | – | – | – | – | – | – | – | – | – | activity of metabolite [21]: inactive |
| CC(=O)NC[C@H]1CN(c2ccc(N3CCOCC3)c(F)c2)C(=O)O1 [Linezolid, (S)—N-[[3-[3-Fluoro-4-(4-morpholinyl)phenyl]-2-oxo-5-oxazolidinyl]methyl]-acetamide, reference compound] | poor activity | – | 11300 ng·h/mL | 4.5 h | 4.5 h | 7.8 µM | – | 1 µg/mL (≈ 2.96 µM) | 4 µg/mL (≈ 11.9 µM) | 2 µg/mL (≈ 5.93 µM) | 2 µg/mL (≈ 5.93 µM) | 2 µg/mL (≈ 5.93 µM) | 2 µg/mL (≈ 5.93 µM) | 2 µg/mL (≈ 5.93 µM) | 2 µg/mL (≈ 5.93 µM) | 2 µg/mL (≈ 5.93 µM) | 2 µg/mL (≈ 5.93 µM) | 2 µg/mL (≈ 5.93 µM) | 4 µg/mL (≈ 11.9 µM) | 8 µg/mL (≈ 23.7 µM) | efficacy in treatment of infections [22]: effective; Tmax [23]: 0.83 ± 1.01 h; Cyp substrate, inhibitor or inducer [24]: not a substrate, inhibitor, or inducer; tolerability ([25]; 725 mg three times a day, increase in serum creatinine): could not be tolerated; myelosuppression ([25]; patients receiving linezolid, reversible): Myelosuppression has been reported; administered dose found in the urine as the parent compound [26]: Approximately 35%; dose accounted for as the two metabolites (M4, M6) [26]: 50%; MIC90 [19]: 2 µg/mL (≈ 5.93 µM); MIC90 [20]: 2 µg/mL (≈ 5.93 µM) |
